{"source": "ChEMBL document CHEMBL1156770", "about": "“X-ray crystallographic analysis of alpha-ketoheterocycle inhibitors bound to a humanized variant of fatty acid amide hydrolase” (J Med Chem, 2010)", "target": "T1, Fatty-acid amide hydrolase 1 (Homo sapiens, UniProt O00519)", "T1 sequence (O00519 whole entry)": "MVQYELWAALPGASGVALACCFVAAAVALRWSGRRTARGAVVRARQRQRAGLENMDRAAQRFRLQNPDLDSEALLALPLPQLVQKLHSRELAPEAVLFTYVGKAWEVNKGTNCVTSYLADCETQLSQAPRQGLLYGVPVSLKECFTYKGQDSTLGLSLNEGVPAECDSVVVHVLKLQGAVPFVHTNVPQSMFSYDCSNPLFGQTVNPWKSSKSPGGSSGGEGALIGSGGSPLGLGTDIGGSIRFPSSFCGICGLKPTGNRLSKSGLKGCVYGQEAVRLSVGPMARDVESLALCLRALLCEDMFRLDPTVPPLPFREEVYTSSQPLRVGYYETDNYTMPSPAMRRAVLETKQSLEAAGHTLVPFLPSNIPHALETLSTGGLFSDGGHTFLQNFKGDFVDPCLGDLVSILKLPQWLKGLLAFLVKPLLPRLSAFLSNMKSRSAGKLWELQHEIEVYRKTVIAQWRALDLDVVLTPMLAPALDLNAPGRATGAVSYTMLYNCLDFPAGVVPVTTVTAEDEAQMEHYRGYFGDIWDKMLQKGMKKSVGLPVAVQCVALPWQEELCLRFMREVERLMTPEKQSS", "test": "Inhibition of FAAH", "data": [{"smiles": "CCCCCCCC/C=C\\CCCCCCCC(=O)c1ncc(-c2ccccn2)o1", "values": [{"measurement": "Ki", "result": 3, "unit": "nM"}]}]}
